# Measurements as given in patent publication US20230331792A1, “NEW MULTI-FUNCTIONAL OLIGOPEPTIDES” (ENLITISA (SHANGHAI) PHARMACEUTICAL CO., LTD., priority 2019, published 2023).
# Square brackets hold non-standard residues; d marks the D form. Ends that are not written are not given here. Dopa = N[C@@H](Cc1ccc(O)c(O)c1)C(=O)O; Hyp = O=C(O)[C@@H]1C[C@@H](O)CN1
# Assays:
# patient [1] = assay: Radiation stomatitis, patient case; format: in vivo, human; conditions: 0.5 mg/mL solution as mouthwash
# Experimental: A patient was diagnosed with oral cancer and underwent radiation therapy.
# After 3 weeks, oral mucositis developed with ulcers on the mucous membrane lining the mouth, throat and esophagus. It was very painful and the patient was not able to eat.
# The patient then used Compound B solution (0.5 mg/mL; prepared as described in Example 38 above) as a mouthwash, as frequently as needed.
# person one = assay: Pain and bleeding after an operation, patient case; format: in vivo, human
# Experimental: Immediately after the operation, they used 0.5 mg/mL of Compound B spray (as described in Example 38 but packed into a normal spray bottle) to apply directly on the wound. The right pane in FIG. 10 was taken 1 hour after operation. […] The physician said that it would normally take a patient at least ten days to fully recover from such a procedure with standard care.
# SD rats = assay: Experimental gastric ulcer model (anhydrous alcohol); format: in vivo
# Experimental: SPF grade SD rats were used in this experiment, with 10 rats in each group. According to an evaluation method of health food for gastric ulcer issued by Chinese State Food and Drug Administration, the protective effect of Compound B on acute gastric ulcers induced by anhydrous alcohol was observed after continuous gavage for 30 days.
# Omeprazole enteric-coated capsules (20 mg/capsule; Heilongjiang Norgas Pharmaceutical Co., Ltd., China) were opened and the powder was dissolved in water to make a 2 mg/mL solution. Compound B (see Example 7 above) powder was dissolved in water to make two solutions with concentrations of 0.25 mg/mL and 0.75 mg/mL. Administration volumes were […].
# All drugs were administrated as shown in Table 13 by oral gavage for 30 consecutive days, once per day. The rats had free access to water. On the 30th day, rats were fasted for 24 hours after the last drug administration. On the 31st day, 1.0 mL/rat of absolute ethanol was given by gavage to each rat in all of the experimental groups except the control group.
# 1 hour later, all of the rats were sacrificed and dissected to expose the intact stomach, followed by ligation of the pylorus. 10% formaldehyde solution was administered into the stomach by perfusion and fixed for 20 minutes. The stomach was dissociated after fixation and cut open along the greater curvature. The stomach contents were washed off the lining with saline to reveal the gastric mucosa.
# The length and width of gastric mucosal bleeding were measured with a Vernier calliper under a stereo microscope or by the naked eye.
# patient [2] = assay: Radiation injury in the nasal cavity, patient case; format: in vivo, human
# Experimental: A patient was diagnosed with paranasal sinus cancer and received radiation therapy. After two weeks treatment, they had inflammation of the nose and sinuses and felt like their nose was blocked or stuffy. The mucus in the nasal cavity and paranasal sinuses became thick and dry.
# The patient used a nasal spray comprising Compound B (see Example 7 above) dissolved in water at a concentration of 0.5 mg/mL and then packed into a nasal spray bottle, once every two hours during daytime.
# [3] = 0.5 mg/mL spray directly on the wound, 1 hour after operation
substance,measurement,setting,value
{[(Ala-Lys-Pro-Ser-Tyr-Hyp-Hyp-Thr-DOPA-Lys)2-Lys]2-Lys}2-Lys (AKPSY[Hyp][Hyp]T[Dopa]KKKK; also: branched lysine dendrimer {[(peptide)2-Lys]2-Lys}2-Lys) [Compound B],course of stomatitis during continued therapy,patient [1],stomatitis did not worsen
same,duration of pain relief,patient [1],one or two hours
same,pain of oral mucositis,patient [1]; almost immediately after application,pain was very much reduced
same,bleeding of operative wound,person one; [3],bleeding had stopped
same,pain of operative wound,person one; [3],only slight pain was felt
same,wound recovery,"person one; 0.5 mg/mL spray, one week later (standard care: at least ten days)",the wound was fully recovered
same,Damage score,"SD rats; 0.25 mg/mL, 0.5 mg/kg oral gavage once per day for 30 days",24
same,Damage score,"SD rats; 0.75 mg/mL, 1.5 mg/kg oral gavage once per day for 30 days",18
same,effect on gastric bleeding induced by alcohol,SD rats; 0.5 and 1.5 mg/kg,may reduce gastric bleeding induced by alcohol
same,blocked or stuffy nose,"patient [2]; nasal spray 0.5 mg/mL once every two hours during daytime, three days later",nose became clear and was no longer stuffy
same,nasal discomfort during continued radiation therapy,"patient [2]; nasal spray 0.5 mg/mL, continuous use",nasal discomfort did not worsen
